Where “and” joins values, the source holds several entries; their conditions need not be identical. Equal values may be shown once.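 Values below derive from 48-hour exposures of cells grown in 96-well plates, with endpoints linearly interpolated between the two concentrations bracketing the appropriate inhibition level. GI50 is the concentration that inhibits growth by half. TGI is the concentration that stops growth completely.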
Key:
Assay in all cases: inhibition of tumour cell growth, NCI panel, 48 h
[1] = tested on: UO-31 renal
[2] = tested on: UACC-62 melanoma
[3] = tested on: HOP-92 NSCLC
[4] = tested on: SK-MEL-5 melanoma
[5] = tested on: ACHN renal
[6] = tested on: UACC-257 melanoma
[7] = tested on: 786-0 renal
[8] = tested on: CCRF-CEM leukemia
[9] = tested on: NCI-H460 lung

SMILES | GI50 [1] | TGI [1] | GI50 [2] [µM] | TGI [2] [µM] | GI50 [3] | TGI [3] | TGI [4] | TGI [5] | GI50 [6] | TGI [6] | GI50 [7] [µM] | TGI [7] [µM] | TGI [8] [µM] | TGI [9] [µM]
COc1cc2c3c(n(CCCNCCN4CCOCC4)c(=O)c2cc1OC)-c1cc2c(cc1C3=O)OCO2 | 5.98 µM and 2.19 µM | 15.2 µM and > 100 µM | 1.38 | 7.58 | 5.79 µM and 1.26 µM | 12.4 µM and 3.92 µM | 7.74 µM and 20.2 µM | 0.658 µM and 2.62 µM | 6.99 µM and 19.2 µM | 14.2 µM and 46.2 µM | 1.97 | 5.23 |  | 
CCCCCCCCCC(=O)N[C@H]1CCc2cc(OC)c(OC)c(OC)c2-c2ccc(SC)c(=O)cc21 | 0.0168 µM | 44.2 µM |  | 15.3 |  | 0.0788 µM | 0.0826 µM | > 100 µM |  | 13.9 µM |  | 10.4 | > 100 | 0.306
O=c1c2cccnc2ncn1CCCN1CCOCC1 |  | > 100 µM |  | > 100 |  | > 100 µM | > 100 µM | > 100 µM |  |  |  | > 100 | > 100 | > 100
N#Cc1nc(Nc2ccc([N+](=O)[O-])cc2)sc1N |  | > 59.7 µM |  | 50.8 |  | 75 µM | 12.7 µM | 50.9 µM |  | 63.7 µM |  | > 100 | > 100 | > 100
CCOC(=O)C1(C(=O)OCC)CC=C(C)CC12C(=O)Nc1ccccc12 (stereo unspecified) |  |  |  | > 100 |  | > 100 µM | > 100 µM | > 100 µM |  |  |  | > 100 | > 100 | > 100
CC1=C(c2cc(C(=O)Nc3cccc(C(F)(F)F)c3)nc(NC#N)n2)Sc2ccccc2N1 |  | > 100 µM |  | > 100 |  | > 100 µM | > 100 µM | > 100 µM |  | > 100 µM |  | > 100 | > 100 | > 100
CC(C)(C)C(=O)OCC(COC(=O)C(C)(C)C)[N+](=O)[O-] |  | > 100 µM |  | > 100 |  |  |  | > 100 µM |  | > 100 µM |  | > 100 | > 100 | > 100
COc1ccc(N2C(=O)C3c4[nH]c5ccccc5c4C4CCC(C(C)(C)C)CC4C3C2=O)cc1OC (stereo unspecified) |  | > 100 µM |  | > 100 |  | 44.8 µM | > 100 µM | 46.6 µM |  | > 100 µM |  | 33.9 | 98.5 | 
O=C1CCC(=O)C12CCc1cccc(O)c12 |  | > 100 µM |  | > 100 |  | > 100 µM |  | > 100 µM |  |  |  | > 100 |  | > 100
